Laboratory results: patent US7265152B2 (ViroPharma Incorporated, priority 2002, dated 2007)
Like-named read-outs stand apart in the source and are kept apart here.

What was measured:
[1] = test system: HCV replicon (BB7 sequence) in Huh-7-Clone A cells; test: HCV replicon assay: ELISA of NS5A protein in replicon-containing cells (Inhibition of Viral RNA Replication); type: cell-based; details: HCV replicon assay, read-out: Replicon
Summary of the method: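 EC50 taken from an 8-point serially diluted dose curve, with NS5A level as read-out: fixed cells probed with primary monoclonal and HRP-conjugated secondary, TMB developed 30 min, OD 650 nm. Compound exposure 72 h in Huh-7-Clone A replicon cells (BB7 sequence).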

[2] = target: T1, HCV NS5B (Hepatitis C virus genotype 1b, UniProt Q9WMX2); test: Inhibition of viral RNA-dependent RNA polymerase (RdRp), in vitro biochemical assay; set-up: species or system HCV genotype 1b virus (BB7); details: BB7 (genotype 1b), read-out: HCV pol-BB7 IC50
T1 construct: fusion protein, of which the carboxyl terminal 21 amino acids were removed to enhance its solubility; His tag (GSHHHHHH); made in house; host or cells: E. coli
Summary of the method: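 IC50 values are the concentrations that halve in vitro RNA synthesis by HCV NS5B polymerase. The enzyme was a C-terminally truncated (Δ21), His-tagged genotype 1b (BB7 consensus) protein purified from E. coli.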

[3] = Hepatitis C virus, ranges of 50% effective concentration (EC50)
[4] = HCV NS5B polymerase, values given as range classes A-D
[5] = Hepatitis C virus, ranges of EC50
[6] = HCV NS5B RdRp, reported as class symbols

`CNC(=O)c1c(-c2ccc(F)cc2)oc2cc(N(C)S(C)(=O)=O)c(OCC(=O)Nc3nncs3)cc12` [Example 416, 2-(4-Fluoro-phenyl)-6-(methanesulfonyl-methyl-amino)-5-([1,3,4]thiadiazol-2-ylcarbamoylmethoxy)-benzofuran-3-carboxylic acid methylamide] was tested, and the EC50 [1, 3] was less than 1000 nM and the IC50 [2, 4] was no more than 500 nM.
Work on `CNC(=O)c1c(-c2ccc(F)cc2)oc2cc(N(C)S(C)(=O)=O)c(OCC(=O)Nc3nc(C)c(C)s3)cc12` [Example 417, 5-[(4,5-Dimethyl-thiazol-2-ylcarbamoyl)-methoxy]-2-(4-fluoro-phenyl)-6-(methanesulfonyl-methyl-amino)-benzofuran-3-carboxylic acid methylamide] yielded an EC50 [1, 3] of less than 1000 nM and an IC50 [2, 4] of no more than 500 nM.
Work on `CNC(=O)c1c(-c2ccc(F)cc2)oc2cc(NS(C)(=O)=O)c(C3CC3)cc12` [Example 418, 5-Cyclopropyl-2-(4-fluoro-phenyl)-6-methanesulfonylamino-benzofuran-3-carboxylic acid methylamide] yielded an EC50 [1, 3] of less than 1000 nM and an IC50 [2, 4] of no more than 500 nM.
With `CNC(=O)c1c(-c2ccc(F)cc2)oc2cc(-c3c(C)noc3C)c(OCCN3CCC(C#N)CC3)cc12` [Example 419, 5-[2-(4-Cyano-piperidin-1-yl)-ethoxy]-6-(3,5-dimethyl-isoxazol-4-yl)-2-(4-fluoro-phenyl)-benzofuran-3-carboxylic acid methylamide] the EC50 [1, 3] was less than 1000 nM and the IC50 [2, 4] was no more than 500 nM.
`CNC(=O)c1c(-c2ccc(F)cc2)oc2cc(NS(C)(=O)=O)c(-c3cccs3)cc12` [Example 420, 2-(4-Fluoro-phenyl)-6-methanesulfonylamino-5-thiophen-2-yl-benzofuran-3-carboxylic acid methylamide] gave an EC50 [1, 3] of less than 1000 nM and an IC50 [2, 4] of no more than 500 nM.
`CNC(=O)COc1cc2c(C(=O)NC)c(-c3ccc(F)cc3)oc2cc1N(C)S(C)(=O)=O` [Example 421, 2-(4-Fluoro-phenyl)-6-(methanesulfonyl-methyl-amino)-5-methylcarbamoyl-methoxy-benzofuran-3-carboxylic acid methylamide] showed an EC50 ([1]; ranges of 50% effective concentration (EC50)) of less than 1000 nM and an IC50 [2, 4] of no more than 500 nM.
For `CNC(=O)c1c(-c2ccc(F)cc2)oc2cc(N(CC3(CO)CC3)S(C)(=O)=O)c(OCC3(CO)CC3)cc12` [Example 422, 2-(4-Fluoro-phenyl)-5-(1-hydroxymethyl-cyclopropylmethoxy)-6-[(1-hydroxymethyl-cyclopropylmethyl)-methanesulfonyl-amino]-benzofuran-3-carboxylic acid methylamide], the EC50 [1, 3] was less than 10000 nM and the IC50 [2, 4] was 500 to 5000 nM.
`CCOc1cc2c(C(=O)NC)c(-c3ccc(F)cc3)oc2cc1N(CC)CC` [Example 423, 6-Diethylamino-5-ethoxy-2-(4-fluoro-phenyl)-benzofuran-3-carboxylic acid methylamide] gave an EC50 [1, 3] of less than 1000 nM and an IC50 [2, 4] of no more than 500 nM.
`CNC(=O)c1c(-c2ccc(F)cc2)oc2cc(N(C)S(C)(=O)=O)c(OCC(N)=O)cc12` [Example 424, 5-Carbamoylmethoxy-2-(4-fluoro-phenyl)-6-(methanesulfonyl-methyl-amino)-benzofuran-3-carboxylic acid methylamide] gave an EC50 [1, 3] of less than 1000 nM and an IC50 [2, 4] of no more than 500 nM.
Work on `CNC(=O)c1c(-c2ccc(F)cc2)oc2cc(N(C)S(C)(=O)=O)c(OCCn3nc(C)cc3C)cc12` [Example 425, 5-[2-(3,5-Dimethyl-pyrazol-1-yl)-ethoxy]-2-(4-fluoro-phenyl)-6-(methanesulfonyl-methyl-amino)-benzofuran-3-carboxylic acid methylamide] yielded an EC50 [1, 3] of less than 1000 nM and an IC50 [2, 4] of no more than 500 nM.
`CNC(=O)c1c(-c2ccc(F)cc2)oc2cc(NS(C)(=O)=O)c(-c3ccco3)cc12` [Example 426, 2-(4-Fluoro-phenyl)-5-furan-2-yl-6-methanesulfonylamino-benzofuran-3-carboxylic acid methylamide] showed an EC50 [1, 3] of less than 1000 nM and an IC50 [2, 4] of no more than 500 nM.
In the case of `CNC(=O)c1c(-c2ccc(F)cc2)oc2cc(-c3c(C)noc3C)c(OCc3nnnn3C)cc12` [Example 427, 6-(3,5-Dimethyl-isoxazol-4-yl)-2-(4-fluoro-phenyl)-5-(1-methyl-1H-tetrazol-5-ylmethoxy)-benzofuran-3-carboxylic acid methylamide], the EC50 [1, 3] is reported as less than 1000 nM and the IC50 [2, 4] is reported as no more than 500 nM.
`CNC(=O)c1c(-c2ccc(F)cc2)oc2cc(-c3c(C)noc3C)c(OCC3CC3)cc12` [Example 428, 5-Cyclopropylmethoxy-6-(3,5-dimethyl-isoxazol-4-yl)-2-(4-fluoro-phenyl)-benzofuran-3-carboxylic acid methylamide] gave an EC50 [1, 3] of less than 1000 nM and an IC50 [2, 4] of no more than 500 nM.
`CNC(=O)c1c(-c2ccc(F)cc2)oc2cc(-c3c(C)noc3C)c(OCc3c(C)noc3C)cc12` [Example 429, 6-(3,5-Dimethyl-isoxazol-4-yl)-5-(3,5-dimethyl-isoxazol-4-ylmethoxy)-2-(4-fluoro-phenyl)-benzofuran-3-carboxylic acid methylamide] was tested, and the EC50 [1, 3] was less than 1000 nM and the IC50 [2, 4] was no more than 500 nM.
With `CNC(=O)c1c(-c2ccc(F)cc2)oc2ccc(OCc3cscn3)cc12` [Example 435, 2-(4-Fluoro-phenyl)-5-(thiazol-4-ylmethoxy)-benzofuran-3-carboxylic acid methylamide] the EC50 [1, 3] was greater than 30000 nM and the IC50 [2, 4] was 500 to 5000 nM.
In the case of `CNC(=O)c1c(-c2ccc(F)cc2)oc2cc(C(=O)CO)c(OC)cc12` [Example 436, 2-(4-Fluoro-phenyl)-6-(2-hydroxy-acetyl)-5-methoxy-benzofuran-3-carboxylic acid methylamide], the EC50 [1, 3] is reported as less than 10000 nM and the IC50 [2, 4] is reported as no more than 500 nM.
`CNC(=O)c1c(-c2ccc(F)cc2)oc2cc(N(C)S(C)(=O)=O)c(C3CC3)cc12` [Example 437, 5-Cyclopropyl-2-(4-fluoro-phenyl)-6-(methanesulfonyl-methyl-amino)-benzofuran-3-carboxylic acid methylamide] showed an EC50 [1, 5] of less than 1000 nM and an IC50 [2, 6] of no more than 500 nM.
Compound `CNC(=O)c1c(-c2ccc(F)cc2)oc2cc(NS(C)(=O)=O)c(C3CCCO3)cc12` (stereo not drawn) [Example 441, 2-(4-Fluoro-phenyl)-6-methanesulfonylamino-5-(tetrahydro-furan-2-yl)-benzofuran-3-carboxylic acid methylamide] has an EC50 [1, 5] of less than 1000 nM and an IC50 [2, 6] of no more than 500 nM.
`CNC(=O)c1c(-c2ccc(F)cc2)oc2cc(C3CCOC3)c(OC)cc12` (stereo not drawn) [Example 442, 2-(4-Fluoro-phenyl)-5-methoxy-6-(tetrahydro-furan-3-yl)-benzofuran-3-carboxylic acid methylamide] was tested, and the EC50 [1, 5] was less than 1000 nM and the IC50 [2, 6] was no more than 500 nM.
With `CCCOc1cc2c(C(=O)NC)c(-c3ccc(F)cc3)oc2cc1N(COC)S(C)(=O)=O` [Example 443, 2-(4-Fluoro-phenyl)-6-(methanesulfonyl-methoxymethyl-amino)-5-propoxy-benzofuran-3-carboxylic acid methylamide] the EC50 [1, 5] was less than 1000 nM and the IC50 [2, 6] was no more than 500 nM.
`CNC(=O)c1c(-c2ccc(F)cc2)oc2cc(N(COC)S(C)(=O)=O)c(O)cc12` [Example 444, 2-(4-Fluoro-phenyl)-5-hydroxy-6-(methanesulfonyl-methoxymethyl-amino)-benzofuran-3-carboxylic acid methylamide] was tested, and the EC50 [1, 5] was less than 10000 nM and the IC50 [2, 6] was no more than 500 nM.
With `CCCOc1cc2c(C(=O)NC)c(-c3ccc(F)cc3)oc2cc1NS(C)(=O)=O` [Example 445, 2-(4-Fluoro-phenyl)-6-methanesulfonylamino-5-propoxy-benzofuran-3-carboxylic acid methylamide] the EC50 [1, 5] was less than 1000 nM and the IC50 [2, 6] was no more than 500 nM.
`CNC(=O)c1c(-c2ccc(F)cc2)oc2cc(N(COC)S(C)(=O)=O)c(OCc3ccc(C#N)cc3)cc12` [Example 446, 5-(4-Cyano-benzyloxy)-2-(4-fluoro-phenyl)-6-(methanesulfonyl-methoxymethyl-amino)-benzofuran-3-carboxylic acid methylamide] was tested, and the EC50 [1, 5] was less than 1000 nM and the IC50 [2, 6] was no more than 500 nM.
`CNC(=O)c1c(-c2ccccc2)oc2ccc(OC)cc12` [Example 452, 5-Methoxy-2-phenyl-benzofuran-3-carboxylic acid methylamide] gave an EC50 [1, 5] greater than 10000 nM and an IC50 [2, 6] of no more than 500 nM.
